Source: patent publication US20230011571A1, “SMALL MOLECULE FURIN INHIBITORS FOR TREATING INFECTIOUS DISEASES” (BP Asset V, Inc., priority 2019, published 2023)

How the values were obtained:
Assay type in all cases: cell-based
[1] = test system: Chikungunya virus (CHIKV); test: microbe, parasite or virus in culture; conditions: for inhibition at 1 µM: Chikungunya virus, Vero, 48 h, read-out: Percent viral inhibition CHKV
dengue virus (DENV) = test: microbe, parasite or virus in culture; conditions: for inhibition at 1 µM: Dengue virus, Vero, 120 h, read-out: Percent viral inhibition DENY
Marburg virus (MARV) = test: organism not typed; conditions: for inhibition at 1 µM: Vero, 72 h, read-out: Percent viral inhibition MARV

SMILES | inhibition at 1 µM [1] | inhibition at 1 µM (dengue virus (DENV)) | inhibition at 1 µM (Marburg virus (MARV)) | Percent viral inhibition CHKV ([1]; 1 µM) | Percent viral inhibition DENY (dengue virus (DENV); 1 µM) | Percent viral inhibition MARV (Marburg virus (MARV); 1 µM)
CC(=O)NCC1CCN(Cc2cc(Oc3cnc(N4CCN(CCC(=O)O)CC4)c(F)c3)nc(-c3cc(Cl)cc(Cl)c3)c2)CC1 [Example 266] | 22.6% | 48.7% | 56.3% |  |  | 
CCOC(=O)NCC1CCN(Cc2cc(Oc3cnc(N4CCN(CCC(=O)O)CC4)nc3)nc(-c3cc(Cl)cc(Cl)c3)c2)CC1 [Example 267, 3-(4-(5-((6-(3,5-dichlorophenyl)-4-((4-(((ethoxycarbonyl)amino)methyl)piperidin-1-yl)methyl)pyridin-2-yl)oxy)pyrimidin-2-yl)piperazin-1-yl) propanoic acid] | 34.6% | 37% | 65% |  |  | 
CC(CC1CCN(Cc2cc(Oc3cnc(N4CCNCC4)nc3)nc(-c3cc(Cl)cc(Cl)c3)c2)CC1)C(=O)O (stereo not drawn) [Example 269, 3-(1-((2-(3,5-dichlorophenyl)-6-((2-(piperazin-1-yl)pyrimidin-5-yl)oxy)pyridin-4-yl)methyl)piperidin-4-yl)-2-methylpropanoic acid] | 24.5% | 39.5% | 35% |  |  | 
CNC(=O)NCC1CCN(Cc2cc(Oc3cnc(N4CCN(CCC(=O)O)CC4)c(F)c3)nc(-c3cc(Cl)cc(Cl)c3)c2)CC1 [Example 270, 3-(4-(5-((6-(3,5-dichlorophenyl)-4-((4-((3-methylureido)methyl)piperidin-1-yl)methyl)pyridin-2-yl)oxy)-3-fluoropyridin-2-yl)piperazin-1-yl)propanoic acid] | 30.7% | 61.6% | 53.6% |  |  | 
CS(=O)(=O)CCCN1CCN(c2ccc(Oc3cc(CN4CCC(CCC(=O)O)CC4)cc(-c4cc(Cl)cc(Cl)c4)n3)cn2)CC1 [Example 271, 3-(1-((2-(3,5-dichlorophenyl)-6-((6-(4-(3-(methylsulfonyl)propyl)piperazin-1-yl)pyridin-3-yl)oxy)pyridin-4-yl)methyl)piperidin-4-yl)propanoic acid] | 22.5% | 0% | 59.7% |  |  | 
CS(=O)(=O)CCCN1CCN(c2ncc(Oc3cc(CN4CCC(CCC(=O)O)CC4)cc(-c4cc(Cl)cc(Cl)c4)n3)cn2)CC1 [Example 272, 3-(1-((2-(3,5-dichlorophenyl)-6-((2-(4-(3-(methylsulfonyl)propyl)piperazin-1-yl)pyrimidin-5-yl)oxy)pyridin-4-yl)methyl)piperidin-4-yl)propanoic acid] | 30.3% | 42.4% | 45.5% |  |  | 
CC(=O)NCC1CCN(Cc2cc(Oc3cnc(N4CCN(CCC(N)=O)CC4)nc3)nc(-c3cc(F)c(F)c(Cl)c3)c2)CC1 [Example 273] | 23.4% | 25.4% | 58.5% |  |  | 
CNC(=O)NCC1CCN(Cc2cc(Oc3cnc(N4CCN(CCCS(C)(=O)=O)CC4)nc3)nc(-c3cc(F)cc(Cl)c3)c2)CC1 [Example 274, 1-((1-((2-(3-chloro-5-fluorophenyl)-6-((2-(4-(3-(methylsulfonyl)propyl)piperazin-1-yl)pyrimidin-5-yl)oxy)pyridin-4-yl)methyl)piperidin-4-yl)methyl)-3-methylurea] | 44.4% | 56.1% | 49% |  |  | 
COC(=O)NCC1CCN(Cc2cc(Oc3cnc(N4CCNCC4)nc3)nc(-c3cc(F)cc(Cl)c3)c2)CC1 [Example 275, methyl((1-((2-(3-chloro-5-fluorophenyl)-6-((2-(piperazin-1-yl)pyrimidin-5-yl)oxy)pyridin-4-yl)methyl)piperidin-4-yl)methyl)carbamate] | 0% | 0% | 0% |  |  | 
CS(=O)(=O)CCC1CCN(Cc2cc(Oc3ccc(N4CCN(CCC(=O)O)CC4)nc3)nc(-c3cc(Cl)cc(Cl)c3)c2)CC1 [Example 276, 3-(4-(5-((6-(3,5-dichlorophenyl)-4-((4-(2-(methylsulfonyl)ethyl)piperidin-1-yl)methyl)pyridin-2-yl)oxy)pyridin-2-yl)piperazin-1-yl)propanoic acid] | 31.8% | 27.3% | 51.8% |  |  | 
NS(=O)(=O)CCC1CCN(Cc2cc(Oc3ccc(N4CCN(CCC(=O)O)CC4)nc3)nc(-c3cc(Cl)cc(Cl)c3)c2)CC1 [Example 277, 3-(4-(5-((6-(3,5-dichlorophenyl)-4-((4-(2-sulfamoylethyl)piperidin-1-yl)methyl)pyridin-2-yl)oxy)pyridin-2-yl)piperazin-1-yl)propanoic acid] | 11.7% | 21.7% | 61.8% |  |  | 
O=C(O)CC1CCN(Cc2cc(Oc3cnc(N4CCN(CCC5(O)CC5)CC4)nc3)nc(-c3cc(Cl)cc(Cl)c3)c2)CC1 [Example 278, 2-(1-((2-(3,5-dichlorophenyl)-6-((2-(4-(2-(1-hydroxycyclopropyl)ethyl)piperazin-1-yl)pyrimidin-5-yl)oxy)pyridin-4-yl)methyl)piperidin-4-yl)acetic acid] | 45.6% | 45.5% | 81.7% |  |  | 
CC(C)(O)CCN1CCN(c2ncc(Oc3cc(CN4CCC(CC(=O)O)CC4)cc(-c4cc(Cl)cc(Cl)c4)n3)cn2)CC1 [Example 279, 2-(1-((2-(3,5-dichlorophenyl)-6-((2-(4-(3-hydroxy-3-methylbutyl)piperazin-1-yl)pyrimidin-5-yl)oxy)pyridin-4-yl)methyl)piperidin-4-yl)acetic acid] | 37.8% | 27.5% | 18.8% |  |  | 
CC(=O)NCC1CCN(Cc2cc(Oc3cnc(N4CCN(C(C)CC(=O)O)CC4)nc3)nc(-c3cc(Cl)cc(Cl)c3)c2)CC1 (stereo not drawn) [Example 282, 3-(4-(5-((4-((4-(acetamidomethyl)piperidin-1-yl)methyl)-6-(3,5-dichlorophenyl)pyridin-2-yl)oxy)pyrimidin-2-yl)piperazin-1-yl)butanoic acid] | 8.2% | 21.8% | 63.7% |  |  | 
CC(=O)NCC1CCN(Cc2cc(Oc3cnc(N4CCN(CC(C)C(=O)O)CC4)nc3)nc(-c3cc(Cl)cc(Cl)c3)c2)CC1 (stereo not drawn) [Example 283, 3-(4-(5-((4-((4-(acetamidomethyl)piperidin-1-yl)methyl)-6-(3,5-dichlorophenyl)pyridin-2-yl)oxy)pyrimidin-2-yl)piperazin-1-yl)-2-methylpropanoic acid] | 29.8% | 43.8% | 49.6% |  |  | 
CC(=O)NCC1CCN(Cc2cc(Oc3cnc(N4CCN(CCS(C)(=O)=O)CC4)nc3)nc(-c3cc(Cl)cc(Cl)c3)c2)CC1 [Example 285, N-((1-((2-(3,5-dichlorophenyl)-6-((2-(4-(2-(methylsulfonyl)ethyl)piperazin-1-yl)pyrimidin-5-yl)oxy)pyridin-4-yl)methyl)piperidin-4-yl)methyl)acetamide] | 35.3% | 22.9% | 80.4% |  |  | 
CC(=O)NCC1CCN(Cc2cc(Oc3cnc(N4CCN(CCS(N)(=O)=O)CC4)nc3)nc(-c3cc(Cl)cc(Cl)c3)c2)CC1 [Example 286, N-((1-((2-(3,5-dichlorophenyl)-6-((2-(4-(2-sulfamoylethyl)piperazin-1-yl)pyrimidin-5-yl)oxy)pyridin-4-yl)methyl)piperidin-4-yl)methyl)acetamide] | 0% | 0% | 19.2% |  |  | 
CCC(CN1CCN(c2ccc(Oc3cc(CN4CCC(CNC(C)=O)CC4)cc(-c4cc(Cl)cc(Cl)c4)n3)cn2)CC1)C(=O)O (stereo not drawn) [Example 288, 2-((4-(5-((4-((4-(acetamidomethyl)piperidin-1-yl)methyl)-6-(3,5-dichlorophenyl)pyridin-2-yl)oxy)pyridin-2-yl)piperazin-1-yl)methyl)butanoic acid] | 28.2% | 52.2% | 49.1% |  |  | 
CC(=O)NCC1CCN(Cc2cc(Oc3ccc(N4CCN(CCS(N)(=O)=O)CC4)nc3)nc(-c3cc(Cl)cc(Cl)c3)c2)CC1 [Example 289, N-((1-((2-(3,5-dichlorophenyl)-6-((6-(4-(2-sulfamoylethyl)piperazin-1-yl)pyridin-3-yl)oxy)pyridin-4-yl)methyl)piperidin-4-yl)methyl)acetamide] |  |  |  | 28.95% | 43.48% | 40.64%
CNC(=O)NCC1CCN(Cc2cc(Oc3ccc(N4CCN(CCS(C)(=O)=O)CC4)nc3)nc(-c3cc(Cl)cc(Cl)c3)c2)CC1 [Example 290, 1-((1-((2-(3,5-dichlorophenyl)-6-((6-(4-(2-(methylsulfonyl)ethyl)piperazin-1-yl)pyridin-3-yl)oxy)pyridin-4-yl)methyl)piperidin-4-yl)methyl)-3-methylurea] | 0% | 18.9% | 50.6% |  |  | 
CNC(=O)NCC1CCN(Cc2cc(Oc3cnc(N4CCN(CC(C)C(=O)O)CC4)nc3)cc(-c3cc(Cl)cc(Cl)c3)c2)CC1 (stereo not drawn) [Example 292, 3-(4-(5-((3′,5′-dichloro-5-((4-((3-methylureido)methyl)piperidin-1-yl)methyl)-[1,1′-biphenyl]-3-yl)oxy)pyrimidin-2-yl)piperazin-1-yl)-2-methylpropanoic acid] | 15.9% | 26% | 54.2% |  |  | 
CC(=O)NCC1CCN(Cc2cc(Oc3ccc(N4CCN(CCS(C)(=O)=O)CC4)nc3)cc(-c3cc(Cl)cc(Cl)c3)c2)CC1 [Example 293, N-((1-((3′,5′-dichloro-5-((6-(4-(2-(methylsulfonyl)ethyl)piperazin-1-yl)pyridin-3-yl)oxy)-[1,1′-biphenyl]-3-yl)methyl)piperidin-4-yl)methyl)acetamide] | 0% | 0% | 0% |  |  | 
